Source: US6872562B2, “Herbicide resistant dinitrogen fixing bacteria and method of use” (priority 2001, dated 2005)

Legend:
[1] = test system: GR soybean cultivar Terral TV5866RR; assay: Greenhouse Example 1: biomass, nitrogen content and nodules of TV5866RR after postemergence glyphosate; format: in vivo, soybean (Glycine max); settings: for Nodules per plant Run 1 / Individual nodule mass Run 2 / Nodules per plant Run 2 / Individual nodule mass Run 1: Harvest 2 (40 DAE)
Description: Seeds were planted in 15-cm pots with an approximate soil volume of 1.9 L. The potting medium was a nitrogen-free peat/vermiculite/perlite mixture (LB2, Sun Gro Horticulture Inc., 1830 Knob Hill, Garland, Tex. 75403). Soil was saturated with deionized (DI) water and then 500 mL of full-strength, nitrogen-free nutrient solution (de Silva et al., 1996) was added prior to planting. Pots were inoculated with approximately 1×10^7 cells of B. japonicum (USDA 110) at sowing. After emergence, plants were thinned to one per pot and reinoculated with B. japonicum. Plants were well watered by adding deionized (DI) water daily, and each pot received 250 mL of nitrogen-free nutrients weekly after emergence. Day and night temperatures were approximately 30 and 24 C, respectively, and natural illumination was supplemented with 1000 W metal-halide lamps for a day length of 16 h.
Each application was as a postemergence over-the-top spray to soybean plants using a moving-nozzle spray chamber. At each harvest, plants were separated into shoots, roots, and nodules. Nodules were photocopied, and total number of nodules per plant was determined from the photocopies. Plant sections were oven dried at 65 C for 48 h, weighed, and ground to pass a 1-mm sieve. Total nitrogen was determined for shoots and root plus nodule dry matter with a Leco FP-228 Determinator (Leco Corporation, St Joseph, Mich.) by the Agriculture Services Laboratory, University of Arkansas. The experiment consisted of six replications and was repeated. Seed for Run 1 and Run 2 of the experiment were planted on 25 February and 14 April, respectively. […] Treatment means were compared using Fisher's Protected least significant difference (LSD, P≦0.05).

[2] = test system: GR soybean cultivars A5901RR and DK5961RR; assay: Field experiments at Keiser and Fayetteville, Arkansas: biomass and seed yield; format: in vivo, soybean (Glycine max)
Description: Field experiments were conducted at Fayetteville and Keiser, Ark., to evaluate the response of GR soybean cultivars to foliar applications of glyphosate under field conditions susceptible to drought stress. […] Delannay et al. (1995) reported three experiments out of 58 in which yields were less than 1500 kg ha^−1, but there was no indication as to the cause of these low yields. The Fayetteville experiment was conducted on a Pembroke silt loam (Ultic Paleudalfs) on 15-cm-high beds spaced 1 m apart. Water was applied as needed until mid-reproductive development (R5) with sprinkle irrigation. At Keiser the soil was a Sharkey silty-clay (Vertic Haplaquepts), and soybean was planted on a flat seedbed with rows 0.96 m apart. Irrigation was applied with an overhead, lateral-move system.
Experiments at both locations were a factorial of two cultivars and five herbicide treatments in a randomized complete block design with four replications. Plots were four rows wide by 9 m long. […] The seeding rate was 370,000 ha^−1 at both locations.
Herbicides were applied as a broadcast treatment, sprayed over-the-top of the canopy with a CO2-powered backpack sprayer in a volume of 93 L ha^−1. […] All herbicide treatments contained appropriate surfactants. Plants were at V1, V4, and V9 development stages at 7, 21, and 35 DAE application timings, respectively, at both locations. R2 applications were made at 45 and 48 DAE at Fayetteville and Keiser, respectively. Plots were maintained weed free by hand weeding as needed. Four replications of the non-nodulating isoline of the cultivar ‘Lee’ were included at each location as an indicator of plant-available soil nitrogen.
Samples were prepared and analyzed for total nitrogen as previously described. Seed yield was determined by harvesting 4.5 m from each of the center two rows. Average seed mass was determined from a random sample of 100 seeds. Biomass data were evaluated by comparing the means±standard errors between herbicide treatments within a cultivar and sample date. […]

[3] = test system: B. japonicum (strain USDA 110); assay: Growth of B. japonicum in defined liquid media with glyphosate up to 10 mM (Example 6); format: cell-based; settings: Bradyrhizobium japonicum, 216 h, read-out: Growth inhibition compared to the control without glyphosate
Description: The defined media consists of 25 mM arabinose as the carbon source, 15 mM (NH4)2SO4, 0.7 mM MgSO4, 0.4 mM CaCl2, 20 mM NaCl, 2.5 mM K2HPO4, and 40 mM MOPS (3-[N-morpholino]propane-sulfonic acid), at pH 6.8, plus the appropriate micronutrients. […] These colonies were removed and stored in frozen culture in 50% sterile glycerol.

Wild type USDA 110 = assay: Growth in Tulley's media with 5 mM glyphosate, wild type (Example 7); format: cell-based, Bradyrhizobium japonicum
Description: (§1) Duplicate cultures were evaluated from each of the original colony selections. […] The cultures were allowed to grow for 14 days, and then the OD of each culture was measured.

[4] = test system: selected B. japonicum cultures (from USDA 110); assay: Growth in Tulley's media with 5 mM glyphosate, colonies selected in Example 6 (Example 7); format: cell-based, Bradyrhizobium japonicum
Description: as §1

[5] = test system: B. japonicum (strain USDA 110); assay: B. japonicum growth in culture with increasing glyphosate (Example 12); format: cell-based; settings: Bradyrhizobium japonicum, 168 h; read-out: Growth inhibition relative to the control
Description: 0.1, 1, 3, and 5 mM. […] At concentrations as low as 0.01 mM, B. japonicum growth was inhibited 18% relative to the control (FIG. 4). At a concentration of 0.1 mM, growth was inhibited approximately 40% relative to the control.

Strains USDA 123 and 138 = settings: 5 mM concentration; cited from earlier work
[6] = Harvest 1 (19 DAE), averaged across runs
[7] = TV5866RR, Harvest 1 (19 DAE), early treatment
[8] = TV5866RR, Harvest 1 (19 DAE), early treatment: foliar 1.68 kg ha^−1 at 5 and 12 DAE

## O=C(O)CNCP(=O)(O)O [glyphosate, N-(phosphonomethyl)glycine]
[1]; Harvest 1 (19 DAE)
  Number of nodules per plant vs untreated: no difference
[1]; [6]
  Nitrogen accumulation decrease in roots: 36%
  Nitrogen accumulation decrease in shoots: 34%
[1]; Harvest 1, Run 2, 19 DAE
  Nodule mass effect: not affected
[1]; Harvest 1, Run 1
  Total nodule weight decrease: 34%
[1]; Early treatment, Run 1
  Nodules per plant Run 1: 138 number
[1]; Early treatment, Run 2
  Individual nodule mass Run 2: 1.70 mg nodule^−1
  Nodules per plant Run 2: 256 number
[1]; Early: 1.68 kg ha^−1 on 5 and 12 DAE, Run 1
  Individual nodule mass Run 1: 2.73 mg nodule^−1
[1]; Late treatment, Run 1
  Nodules per plant Run 1: 150 number
[1]; Late treatment, Run 2
  Individual nodule mass Run 2: 2.00 mg nodule^−1
  Nodules per plant Run 2: 209 number
[1]; Late: 1.68 kg ha^−1 on 18, 25, and 32 DAE, Run 1
  Individual nodule mass Run 1: 2.79 mg nodule^−1
[1]; TV5866RR, Harvest 1
  Root biomass effect: not decreased
[1]; TV5866RR, Harvest 1 (19 DAE)
  Shoot biomass decrease: 17%
[1]; [7]
  Nitrogen Root: 4.2 mg plant^−1
  Nitrogen Shoot: 8.9 mg plant^−1
[1]; [8]
  Biomass Root: 0.17 g plant^−1
  Biomass Shoot: 0.40 g plant^−1
[1]; TV5866RR, Harvest 1 (19 DAE), early treatment, Run 1
  Biomass Nodules Run 1: 0.043 g plant^−1
[1]; TV5866RR, Harvest 1 (19 DAE), early treatment, Run 2
  Biomass Nodules Run 2: 0.088 g plant^−1
[1]; between 12 and 20 DAE
  Visual observation of plants: yellowed
[1]; by 40 DAE in Run 2
  Effect on plant mass, plant color, or plant N content: no apparent effect
[2]; Fayetteville, A5901RR, glyphosate 1: 7 & 21 DAE
  Soybean seed yield: 2053a kg ha^−1
[2]; Fayetteville, A5901RR, glyphosate 2: 7 & 49 DAE
  Soybean seed yield: 2057a kg ha^−1
[2]; Fayetteville, A5901RR, glyphosate 3: 21 & 35 DAE
  Soybean seed yield: 1999a kg ha^−1
[2]; Fayetteville, DK5961RR, glyphosate 1: 7 & 21 DAE
  Soybean seed yield: 1854a kg ha^−1
[2]; Fayetteville, DK5961RR, glyphosate 2: 7 & 49 DAE
  Soybean seed yield: 1798a kg ha^−1
[2]; Fayetteville, DK5961RR, glyphosate 3: 21 & 35 DAE
  Soybean seed yield: 1992a kg ha^−1
[2]; Keiser, A5901RR, 92 DAE
  Biomass vs untreated check: significantly less biomass
[2]; Keiser, A5901RR, glyphosate 1: 1.68 kg ha^−1 at 7 & 21 DAE
  Soybean seed yield: 974b kg ha^−1
[2]; Keiser, A5901RR, glyphosate 2: 1.68 kg ha^−1 at 7 & 49 DAE
  Soybean seed yield: 1138ab kg ha^−1
[2]; Keiser, A5901RR, glyphosate 3: 1.68 kg ha^−1 at 21 & 35 DAE
  Soybean seed yield: 1050ab kg ha^−1
[2]; Keiser, A5901RR, glyphosate at 7 followed by 21 DAE
  Yield vs check: significantly lower yield
[2]; Keiser, DK5961RR, 92 DAE, glyphosate at 7 followed by 21 DAE or at 7 followed by 49 DAE
  Biomass vs other treatments: tended to be lower
[2]; Keiser, DK5961RR, glyphosate 1: 7 & 21 DAE
  Soybean seed yield: 1197ab kg ha^−1
[2]; Keiser, DK5961RR, glyphosate 2: 7 & 49 DAE
  Soybean seed yield: 989b kg ha^−1
[2]; Keiser, DK5961RR, glyphosate 3: 21 & 35 DAE
  Soybean seed yield: 1291a kg ha^−1
[2]; Keiser, DK5961RR, glyphosate at 7 followed by 21 DAE
  Yield decrease: 24%
[2]; Keiser, DK5961RR, glyphosate at 7 followed by 49 DAE
  Yield lower than untreated check: 8%
[2]; Keiser, DK5961RR, other glyphosate and standard herbicide treatments
  Seed yields vs untreated check: numerically equal to the untreated check
[3]
  inhibition at 10000 µM: ~90%
Wild type USDA 110; 14 days
  Growth, % of USDA 110 in the absence of glyphosate: 33%
Wild type USDA 110; USDA 110, after 14 days
  OD600: 0.44 b^
[4]; 45 selected colonies averaged, liquid culture, 14 days
  Growth, % of wild type USDA 110 in the absence of glyphosate: 27%
[4]; Selected cultures, averaged over all strains, after 14 days
  OD600: 0.36 b^
[5]
  inhibition at 10 µM: 18%
  inhibition at 100 µM: ~40%
Strains USDA 123 and 138
  Inhibition: 100%
